Measurements reported in PubChem BioAssay AID248 (DTP/NCI, 2004).
Values joined by “and” are separate entries in the source; they are usually repeats but may differ in a detail not shown here. Equal entries are not always repeated. Toxic doses and inconclusive results are not listed.

Tested on: L1210 leukemia ip in BDF1 mice, survival T/C
Assay: NCI In Vivo Anticancer Drug Screen. Data for tumor model L1210 Leukemia (intraperitoneal) in B6D2F1 (BDF1) mice
Conditions: endpoint: mean survival time, higher = longer survival
Summary of the method: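 Each compound was tested against a transplantable tumor grown in mice. The endpoint was survival, with treated animals benchmarked against vehicle controls as a simple ratio.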

[1] = dose: 100.0 mg/kg/injection, schedule: Q01DX009 (ip), vehicle: Klucel (hydroxypropylcellulose) (HPC)
[2] = dose: 200.0 mg/kg/injection, schedule: Q01DX009 (ip), vehicle: Klucel (hydroxypropylcellulose) (HPC)
[3] = dose: 400.0 mg/kg/injection, schedule: Q01DX009 (ip), vehicle: Klucel (hydroxypropylcellulose) (HPC)
[4] = dose: 400.0 mg/kg/injection, schedule: Q01DX001 (ip), vehicle: carboxymethylcellulose (CMC)
[5] = dose: 50.0 mg/kg/injection, schedule: Q01DX001 (ip), vehicle: carboxymethylcellulose (CMC)
[6] = dose: 100.0 mg/kg/injection, schedule: Q01DX001 (ip), vehicle: carboxymethylcellulose (CMC)
[7] = dose: 200.0 mg/kg/injection, schedule: Q01DX001 (ip), vehicle: carboxymethylcellulose (CMC)
[8] = dose: 100.0 mg/kg/injection, schedule: Q04DX003 (ip), vehicle: saline with Tween-80
[9] = dose: 25.0 mg/kg/injection, schedule: Q01DX009 (ip), vehicle: saline with Tween-80
[10] = dose: 25.0 mg/kg/injection, schedule: Q04DX003 (ip), vehicle: saline with Tween-80
[11] = dose: 200.0 mg/kg/injection, schedule: Q04DX003 (ip), vehicle: saline with Tween-80
[12] = dose: 400.0 mg/kg/injection, schedule: Q04DX003 (ip), vehicle: saline with Tween-80
[13] = dose: 100.0 mg/kg/injection, schedule: Q01DX001 (ip), vehicle: saline
[14] = dose: 200.0 mg/kg/injection, schedule: Q01DX001 (ip), vehicle: saline
[15] = dose: 400.0 mg/kg/injection, schedule: Q01DX001 (ip), vehicle: saline

CCCCCC(C)NCC(C)(C)O (configuration not stated)
T/C (dose: 75.0 mg/kg/injection, schedule: Q01DX001 (ip), vehicle: acid diluted with saline): 102 % of control

C=CCC1(OC(C)=O)CCN(C)CC1
T/C (dose: 75.0 mg/kg/injection, schedule: Q01DX001 (ip), vehicle: saline): 113 % of control

c1ccc(-c2cc[c]([Sn]([c]3ccccc3)([c]3ccccc3)[c]3ccccc3)cc2)cc1
T/C (dose: 100.0 mg/kg/injection, schedule: Q04DX002 (ip), vehicle: other): 103 % of control | T/C (dose: 200.0 mg/kg/injection, schedule: Q04DX002 (ip), vehicle: other): 107 % of control | T/C (dose: 400.0 mg/kg/injection, schedule: Q04DX002 (ip), vehicle: other): 96 % of control

NC(N)=NCCCC(NC(=O)c1ccccc1)C(=O)O (configuration not stated)
T/C (dose: 100.0 mg/kg/injection, schedule: Q01DX001 (ip), vehicle: other): 104 % of control | T/C (dose: 100.0 mg/kg/injection, schedule: Q01DX009 (ip), vehicle: other): 101 % of control | T/C (dose: 100.0 mg/kg/injection, schedule: Q04DX003 (ip), vehicle: other): 93 % of control | T/C (dose: 200.0 mg/kg/injection, schedule: Q01DX001 (ip), vehicle: other): 100 % of control | T/C (dose: 200.0 mg/kg/injection, schedule: Q01DX009 (ip), vehicle: other): 107 % of control | T/C (dose: 200.0 mg/kg/injection, schedule: Q04DX003 (ip), vehicle: other): 90 % of control | T/C (dose: 400.0 mg/kg/injection, schedule: Q01DX001 (ip), vehicle: other): 100 % of control | T/C (dose: 400.0 mg/kg/injection, schedule: Q01DX009 (ip), vehicle: other): 100 % of control | T/C (dose: 400.0 mg/kg/injection, schedule: Q04DX003 (ip), vehicle: other): 96 % of control

C(=N\Nc1nc2ccccc2s1)/c1ccnc2ccccc12
T/C [1]: 102 % of control | T/C [2]: 101 % of control | T/C [3]: 96 % of control

CCCC(=O)Nc1ccn(C2OC(COC(=O)CCC)C(OC(=O)CCC)C2OC(=O)CCC)c(=O)n1 (configuration not stated)
T/C (dose: 177.0 mg/kg/injection, schedule: Q01DX001 (ip), vehicle: carboxymethylcellulose (CMC)): 101 % of control | T/C (dose: 266.0 mg/kg/injection, schedule: Q01DX001 (ip), vehicle: carboxymethylcellulose (CMC)): 116 % of control | T/C [4]: 117 % of control

O=C(CCC(=O)c1ccc(Br)cc1)c1ccc(Br)cc1
T/C [5]: 92 % of control | T/C [6]: 97 % of control | T/C [7]: 103 % of control | T/C [4]: 90 % of control

O=C(OCc1ccccc1CN1CCCC1)c1ccc(Cl)cc1
T/C (dose: 100.0 mg/kg/injection, schedule: Q04DX002 (ip), vehicle: Klucel (hydroxypropylcellulose) (HPC)): 111 % of control | T/C (dose: 200.0 mg/kg/injection, schedule: Q04DX002 (ip), vehicle: Klucel (hydroxypropylcellulose) (HPC)): 96 % of control | T/C (dose: 400.0 mg/kg/injection, schedule: Q04DX002 (ip), vehicle: Klucel (hydroxypropylcellulose) (HPC)): 111 % of control

CC1([N+](=O)[O-])COP(=O)(NC2CC2)OC1 (configuration not stated)
T/C [5]: 97 % of control | T/C [6]: 97 % of control | T/C [7]: 103 % of control | T/C [4]: 97 % of control

COc1cc(NS(C)(=O)=O)ccc1Nc1c2ccc(Cl)cc2nc2c(OC)cccc12
T/C (dose: 6.25 mg/kg/injection, schedule: Q01DX009 (ip), vehicle: water): 155 % of control | T/C (dose: 12.5 mg/kg/injection, schedule: Q01DX009 (ip), vehicle: water): 98 % of control | T/C (dose: 13.0 mg/kg/injection, schedule: Q04DX003 (ip), vehicle: saline with Tween-80): 155 % of control | T/C (dose: 20.0 mg/kg/injection, schedule: Q04DX003 (ip), vehicle: saline with Tween-80): 247 % of control | T/C (dose: 29.0 mg/kg/injection, schedule: Q04DX003 (ip), vehicle: saline with Tween-80): 253 % of control | T/C (dose: 30.0 mg/kg/injection, schedule: Q04DX003 (ip), vehicle: saline with Tween-80): 296 % of control | T/C (dose: 44.0 mg/kg/injection, schedule: Q04DX003 (ip), vehicle: saline with Tween-80): 260 % of control | T/C (dose: 66.0 mg/kg/injection, schedule: Q04DX003 (ip), vehicle: saline with Tween-80): 153 % of control | T/C [8]: 89 % of control

CCNCCCCNCC
T/C [9]: 95 % of control | T/C [10]: 98 % of control | T/C (dose: 50.0 mg/kg/injection, schedule: Q01DX009 (ip), vehicle: saline with Tween-80): 101 % of control | T/C (dose: 50.0 mg/kg/injection, schedule: Q04DX003 (ip), vehicle: saline with Tween-80): 91 % of control | T/C [8]: 94 % of control and 87 % of control

NC(=O)NC(CC(=O)O)C(=O)O (configuration not stated)
T/C [8]: 117 % of control | T/C [11]: 101 % of control | T/C [12]: 92 % of control

Cc1ccccc1Nc1ncnc2c1cnn2-c1ccccc1
T/C [13]: 102 % of control | T/C [14]: 105 % of control | T/C [15]: 115 % of control

CC(O)CNC(=O)C(C)O (configuration not stated)
T/C [8]: 98 % of control | T/C [11]: 97 % of control | T/C [12]: 102 % of control

CSc1ccc(NC(=O)C(Br)C(Br)c2ccccc2)cc1 (configuration not stated)
T/C [1]: 103 % of control | T/C [2]: 105 % of control | T/C [3]: 102 % of control

O=[N+]([O-])C=C([SH2+])[SH2+].O=[N+]([O-])C=C([SH2+])[SH2+].[Ni+2].c1ccc(C[P+](c2ccccc2)(c2ccccc2)c2ccccc2)cc1
T/C (dose: 75.0 mg/kg/injection, schedule: Q04DX003 (ip), vehicle: saline): 101 % of control | T/C (dose: 150.0 mg/kg/injection, schedule: Q04DX003 (ip), vehicle: saline): 101 % of control

COC(=O)C1=CN=NC1=[N+]=[N-]
T/C (dose: 10.0 mg/kg/injection, schedule: Q01DX001 (ip), vehicle: saline): 103 % of control | T/C (dose: 20.0 mg/kg/injection, schedule: Q01DX001 (ip), vehicle: saline): 97 % of control

COc1cc(NC(C)CCCN)c2nc(OCc3ccccc3)ccc2c1 (configuration not stated)
T/C (dose: 6.25 mg/kg/injection, schedule: Q01DX009 (ip), vehicle: saline with Tween-80): 96 % of control | T/C (dose: 6.25 mg/kg/injection, schedule: Q04DX003 (ip), vehicle: saline with Tween-80): 96 % of control | T/C (dose: 12.5 mg/kg/injection, schedule: Q01DX009 (ip), vehicle: saline with Tween-80): 98 % of control | T/C (dose: 12.5 mg/kg/injection, schedule: Q04DX003 (ip), vehicle: saline with Tween-80): 93 % of control | T/C [9]: 97 % of control | T/C [10]: 99 % of control

CCc1ccccc1NC(=O)Nc1cccc2ccccc12
T/C (dose: 100.0 mg/kg/injection, schedule: Q01DX009 (ip), vehicle: gum acacia): 98 % of control | T/C (dose: 100.0 mg/kg/injection, schedule: Q04DX003 (ip), vehicle: gum acacia): 96 % of control | T/C (dose: 200.0 mg/kg/injection, schedule: Q01DX009 (ip), vehicle: gum acacia): 95 % of control | T/C (dose: 200.0 mg/kg/injection, schedule: Q04DX003 (ip), vehicle: gum acacia): 96 % of control | T/C (dose: 400.0 mg/kg/injection, schedule: Q01DX009 (ip), vehicle: gum acacia): 88 % of control | T/C (dose: 400.0 mg/kg/injection, schedule: Q04DX003 (ip), vehicle: gum acacia): 93 % of control

NC(=O)N/N=C1\CC2CC1C1C=CCC21 (configuration not stated)
T/C [5]: 102 % of control | T/C [6]: 93 % of control | T/C [7]: 102 % of control

O=C(O)c1cc(I)c(OCc2ccccc2)c(I)c1
T/C [6]: 100 % of control | T/C [7]: 94 % of control | T/C [4]: 96 % of control

CC12NC(=O)NC(=O)N1CCS2 (configuration not stated)
T/C (dose: 50.0 mg/kg/injection, schedule: Q01DX001 (ip), vehicle: saline): 100 % of control | T/C [13]: 106 % of control | T/C [14]: 102 % of control | T/C [15]: 100 % of control

O=C(NCc1cnccn1)c1ccccc1
T/C (dose: 100.0 mg/kg/injection, schedule: Q01DX009 (ip), vehicle: saline with Tween-80): 104 % of control | T/C (dose: 200.0 mg/kg/injection, schedule: Q01DX009 (ip), vehicle: saline with Tween-80): 98 % of control | T/C (dose: 400.0 mg/kg/injection, schedule: Q01DX009 (ip), vehicle: saline with Tween-80): 92 % of control

CCCCCCCCCCCCO
T/C [1]: 88 % of control | T/C [2]: 96 % of control

O=CNO
T/C (dose: 50.0 mg/kg/injection, schedule: Q01DX001 (ip), vehicle: water): 100 % of control | T/C (dose: 100.0 mg/kg/injection, schedule: Q01DX001 (ip), vehicle: water): 110 % of control | T/C (dose: 200.0 mg/kg/injection, schedule: Q01DX001 (ip), vehicle: water): 96 % of control | T/C (dose: 400.0 mg/kg/injection, schedule: Q01DX001 (ip), vehicle: water): 107 % of control
